Laboratory results as given in patent US20090137577A1, “HETEROCYCLIC COMPOUNDS” (Pfizer Inc., priority 2007, published 2009).

Biological target: T1, mGluR2 receptor (metabotropic glutamate receptor 2) (Homo sapiens, UniProt Q14416)
T1 construct: expressed in transfected cells
Assay: mGluR2 potentiator screen (FLIPR, EC10-EC20 glutamate challenge);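 also: HEK cells stably expressing human mGluR2 with GL15 G protein, Fluo-4 calcium fluorescence read on FLIPR, compounds added before an EC10-EC20 glutamate challenge to detect potentiation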
Type: cell-based
Conditions: geometric mean; read-out: mGluR 2 EC50 (geometric mean)

T1 sequence (Q14416 19-872, species assumed): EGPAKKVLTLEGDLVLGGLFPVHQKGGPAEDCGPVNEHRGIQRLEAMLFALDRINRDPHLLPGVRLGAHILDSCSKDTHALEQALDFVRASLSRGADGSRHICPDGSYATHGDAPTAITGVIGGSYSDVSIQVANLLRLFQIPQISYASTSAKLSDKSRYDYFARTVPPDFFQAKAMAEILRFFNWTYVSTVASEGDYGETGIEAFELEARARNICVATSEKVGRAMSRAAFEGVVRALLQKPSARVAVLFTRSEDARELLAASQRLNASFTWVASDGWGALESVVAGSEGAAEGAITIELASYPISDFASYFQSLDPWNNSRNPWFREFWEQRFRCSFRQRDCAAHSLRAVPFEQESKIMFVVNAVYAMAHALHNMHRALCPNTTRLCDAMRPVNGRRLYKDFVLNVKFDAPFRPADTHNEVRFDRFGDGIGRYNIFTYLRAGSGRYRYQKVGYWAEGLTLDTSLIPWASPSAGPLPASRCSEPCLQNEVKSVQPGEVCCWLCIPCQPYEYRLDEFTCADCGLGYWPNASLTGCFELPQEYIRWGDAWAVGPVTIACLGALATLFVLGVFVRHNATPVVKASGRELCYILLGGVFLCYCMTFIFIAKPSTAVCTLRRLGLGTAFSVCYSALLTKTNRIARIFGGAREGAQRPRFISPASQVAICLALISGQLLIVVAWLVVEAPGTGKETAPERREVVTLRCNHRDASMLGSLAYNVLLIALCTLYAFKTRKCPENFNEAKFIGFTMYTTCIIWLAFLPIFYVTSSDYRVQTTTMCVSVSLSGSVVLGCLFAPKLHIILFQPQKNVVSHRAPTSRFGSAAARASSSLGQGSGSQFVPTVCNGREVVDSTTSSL

SMILES | EC50 [nM]
CC(Oc1ccc(CN2CCN(CC(C)(C)C)CC2=O)cc1)C1CCCCC1 (stereo not shown) [Example 223] | 584
CC(Oc1ccc(CN2CCN(C3CC[C@@H](C)C3)CC2=O)cc1)C1CCCCC1 (stereo partly shown) [Example 224] | 1100
CC1CCCC1N1CCN(Cc2ccc(OC(C)C3CCCCC3)cc2)C(=O)C1 (stereo not shown) [Example 225] | 638
C[C@@H]1CN(Cc2ccc(OCC3CCCCC3)c(F)c2)C(=O)O1 [Example 227, (5R)-3-[4-(cyclohexylmethoxy)-3-fluorobenzyl]-5-methyl-1,3-oxazolidin-2-one] | 196
C[C@@H]1CN(Cc2ccc(OCCCOc3ccc(F)cc3)nc2)C(=O)O1 [Example 229, (5R)-3-({6-[3-(4-fluorophenoxy)propoxy]pyridin-3-yl}methyl)-5-methyl-1,3-oxazolidin-2-one] | 757
CC(Oc1ccc(CN2C[C@@H](C)OC2=O)cc1F)C1CCCCC1 (stereo partly drawn) [Example 230, (5R)-3-[4-(1-Cyclohexylethoxy)-3-fluorobenzyl]-5-methyl-1,3-oxazolidin-2-one] | < 21.6
C[C@@H]1CN(Cc2ccc(-c3cc(C#N)ccc3Cl)cc2)C(=O)O1 [Example 231] | 683
C[C@@H]1CN(Cc2ccc(-c3ccc(C(F)(F)F)cc3F)cc2)C(=O)O1 [Example 234] | < 34.5
Cc1cc(Cl)ccc1-c1ccc(CN2C[C@@H](C)OC2=O)cc1 [Example 236] | 49
C[C@@H]1CN(Cc2ccc(-c3ccc(Cl)c(F)c3)cc2)C(=O)O1 [Example 237] | 112
COc1cc(F)ccc1-c1ccc(CN2C[C@@H](C)OC2=O)cc1 [Example 239] | < 105
COc1ccc(F)c(-c2ccc(CN3C[C@@H](C)OC3=O)cc2)c1 [Example 240] | 120
C[C@@H]1CN(Cc2ccc(OCCC3CCCCC3)c(F)c2)C(=O)O1 [Example 241, (5R)-3-[4-(2-cyclohexylethoxy)-3-fluorobenzyl]-5-methyl-1,3-oxazolidin-2-one] | 418
COc1ccc(-c2ccc(CN3C[C@@H](C)OC3=O)cc2)c(F)c1F [Example 242] | < 17.2
COc1ccc(F)c(F)c1-c1ccc(CN2C[C@@H](C)OC2=O)cc1 [Example 243] | < 25.3
C[C@@H]1CN(Cc2ccc(-c3cccc(F)c3F)cc2)C(=O)O1 [Example 244] | 97.2
C[C@@H]1CN(Cc2ccc(-c3ccc(F)c(F)c3)cc2)C(=O)O1 [Example 245] | 92.9
C[C@@H]1CN(Cc2ccc(-c3cc(F)cc(F)c3)cc2)C(=O)O1 [Example 246] | 445
C[C@@H]1CN(Cc2ccc(-c3c(F)cccc3F)cc2)C(=O)O1 [Example 247] | 211

SMILES | EC50 [nM]
Cc1ccc(F)cc1-c1ccc(CN2C[C@@H](C)OC2=O)cc1 [Example 248] | 53.7
Cc1cc(CN2CC(c3cccnc3)OC2=O)ccc1OCC1CCCCC1 (stereo not shown) [Example 250, 3-[4-(Cyclohexylmethoxy)-3-methylbenzyl]-5-pyridin-3-yl-1,3-oxazolidin-2-one] | 1870
C[C@@H]1CN(Cc2ccc(-c3cccc(F)c3Cl)cc2F)C(=O)O1 [Example 251] | 55.9
C[C@@H]1CN(Cc2ccc(-c3ccc(C(F)(F)F)cc3F)cc2F)C(=O)O1 [Example 252] | 29.3
COc1c(-c2ccc(F)cc2)ccc(CN2C[C@@H](C)OC2=O)c1F [Example 253] | 135
Cc1ccc(-c2ccc(CN3C[C@@H](C)OC3=O)cn2)c(F)c1 [Example 257] | 429
C[C@@H]1CN(Cc2ccc(-c3ccc(C(F)(F)F)cc3F)nc2)C(=O)O1 [Example 258] | 205
Cc1ccc(Cl)cc1-c1ccc(CN2C[C@@H](C)OC2=O)cn1 [Example 259] | 1460
COc1ccc(F)c(-c2ccc(CN3C[C@@H](C)OC3=O)cn2)c1 [Example 260] | 858
C[C@@H]1CN(Cc2ccc(-c3ccc(Cl)c(Cl)c3)nc2)C(=O)O1 [Example 261] | 116
COc1ccc(-c2ccc(CN3C[C@@H](C)OC3=O)cn2)c(F)c1F [Example 262] | 363
C[C@@H]1CN(Cc2ccc(-c3ccc(C(F)(F)F)cc3Cl)nc2)C(=O)O1 [Example 268] | 102
C[C@@H]1CN(Cc2ccc(-c3ccc(Cl)cc3Cl)nc2)C(=O)O1 [Example 269] | 518
C[C@@H]1CN(Cc2ccc(-c3ccc(Cl)cc3Cl)cc2)C(=O)O1 [Example 273] | < 40.1
C[C@@H]1CN(Cc2ccc(-c3ccc(C(F)(F)F)cc3C(F)(F)F)nc2)C(=O)O1 [Example 276] | 788
CC(C)Oc1ccc(-c2ccc(CN3C[C@@H](C)OC3=O)cc2)cc1F [Example 277] | 53.1
CC(C)Oc1ccc(-c2ccc(CN3C[C@@H](C)OC3=O)cn2)c(Cl)c1 [Example 278] | 164
CC(C)Oc1ccc(-c2ccc(CN3C[C@@H](C)OC3=O)cn2)c(F)c1 [Example 279] | 159
CC(C)Oc1ccc(-c2ccc(CN3C[C@@H](C)OC3=O)cc2)c(Cl)c1 [Example 280] | < 15.4

The remaining lines, values ahead:

EC50 [nM] | SMILES
870 | C[C@@H]1CN(Cc2ccc(OCc3ccc(C(F)(F)F)cc3F)c(F)c2)C(=O)O1 [Example 228, (5R)-3-(3-fluoro-4-{[2-fluoro-4-(trifluoromethyl)benzyl]oxy}benzyl)-5-methyl-1,3-oxazolidin-2-one]
< 39.2 | Cc1ccc(-c2ccc(CN3C[C@@H](C)OC3=O)cc2)c(F)c1 [Example 232]
45.6 | Cc1ccc(Cl)cc1-c1ccc(CN2C[C@@H](C)OC2=O)cc1 [Example 233]
< 23.5 | C[C@@H]1CN(Cc2ccc(-c3cccc(Cl)c3F)cc2)C(=O)O1 [Example 235]
< 28.4 | C[C@@H]1CN(Cc2ccc(-c3ccc(F)cc3F)cc2F)C(=O)O1 [Example 249, (5R)-5-methyl-3-[(2′,3,4′-trifluorobiphenyl-4-yl)methyl]-1,3-oxazolidin-2-one]
71.2 | Cc1cc(CN2C[C@@H](C)OC2=O)ccc1OCC1CCCCC1 [Example 254, (5R)-3-[4-(Cyclohexylmethoxy)-3-methylbenzyl]-5-methyl-1,3-oxazolidin-2-one]
463 | C[C@@H]1CN(Cc2ccc(-c3ccc(OC(F)(F)F)cc3)nc2)C(=O)O1 [Example 255, (5R)-5-methyl-3-({6-[4-(trifluoromethoxy)phenyl]pyridin-3-yl}methyl)-1,3-oxazolidin-2-one]
< 39.8 | C[C@@H]1CN(Cc2ccc(-c3ccc(Cl)cc3F)cc2)C(=O)O1 [Example 256]
1370 | COc1ccc(F)c(F)c1-c1ccc(CN2C[C@@H](C)OC2=O)cn1 [Example 263]
561 | C[C@@H]1CN(Cc2ccc(-c3ccc4c(c3)CCO4)nc2)C(=O)O1 [Example 264]
1100 | C[C@@H]1CN(Cc2ccc(-c3ccc(C(F)(F)F)cc3)nc2)C(=O)O1 [Example 265]
562 | COc1ccc(Cl)cc1-c1ccc(CN2C[C@@H](C)OC2=O)cn1 [Example 266]
1160 | COc1ccc(F)cc1-c1ccc(CN2C[C@@H](C)OC2=O)cn1 [Example 267]
475 | Cc1cc(-c2ccc(CN3C[C@@H](C)OC3=O)cn2)ccc1F [Example 271]
20.1 | C[C@@H]1CN(Cc2ccc(-c3ccc(C(F)(F)F)cc3Cl)cc2)C(=O)O1 [Example 272]
31.3 | C[C@@H]1CN(Cc2ccc(-c3ccc(F)cc3Cl)cc2)C(=O)O1 [Example 274]
47.4 | C[C@@H]1CN(Cc2ccc(-c3ccc(C(F)(F)F)cc3C(F)(F)F)cc2)C(=O)O1 [Example 275]
